Laboratory results from US20030013656A1, “Pyruvate derivatives” (priority 2001, published 2003).

The molecules below were run on rat middle cerebral artery occlusion (MCAO) model (assay: Rat middle cerebral artery occlusion (MCAO) model of cerebral ischemia). Details: 2 h, doses in the range of less than about 1 μg/kg to less than about 10 mg/kg, two hours MCAO, read-out: reduction in total infarct volume.
Type: in vivo
Procedure: Male Wistar rats (Harlan, Ind.) weighing 300-350 g are commonly used in these experiments. Animals are allowed free access to water and commercial rodent diet under standard laboratory conditions. Room temperature is maintained at 20-23° C. and room illumination is on a 12/12-hour light/dark cycle. Animals are acclimatized to the laboratory environment 5 to 7 days prior to the study, and fasted (with free access to water) overnight before surgery.
Anesthesia is maintained by inhalation of 3.0% isoflurane (Aerrane, Front Dodge, Iowa) in […]. The animal's neck is shaved and sterilized before operation. Body temperatures are controlled and maintained at 37.5° C.+/−1 degree via external heating and cooling devices. To lower the body temperature, animals are placed in a cooling chamber that uses ice to cool circulating air. Throughout the study the body temperature is recorded using a temperature transponder (BMDS Inc., Seaford, Del.) implanted subcutaneously at the time of MCAO between the rat shoulder blades, which allows the user to read the body temperature via a pocket scanner (BMDS Inc., Seaford, Del.). The body temperature can also be taken by inserting the temperature probe into the animal's rectum. Body temperature is recorded every hour for 6 hours post-occlusion, but temperature is measured more frequently to facilitate maintaining the animals' normothermic temperature.
Animals are subjected to two hours MCAO using a modified intraluminal filament technique, as follows. A midline incision on the ventral part of the neck is made to expose external and internal carotid arteries. The right external and common carotid arteries are ligated by a suture (silk 5/0, Carlisle Laboratories, Farmers Branch, Tex.) and the right internal artery is temporarily ligated using a microvascular clip (Fine Science Tool Inc., Foster City, Calif.). A small incision is made in the common carotid artery. A nylon filament, its tip rounded by heating, is prepared from a fishing line (Stren Fishing Lines, Wilmington, Del.) and is inserted from the right common carotid artery. The filament is advanced into the internal carotid artery 18-20 mm from the point of bifurcation of internal and external arteries and a suture is tightly ligated around the filament. Two hours post occlusion, animals are re-anesthetized to allow reperfusion for the remaining of the experiment by removal of the filament. C. Drug Administration
Test compounds can be administered by any of a number of routes, such as those described below. Compounds can be administered before, during or after occlusion, as appropriate to the protocol.
One hour after MCAO, the animal is gently held by its tail and observed for forelimb flexion. Then the animal is placed on the floor to be observed for walking pattern; only the animals that score 3 on the Bederson grading system (Table 1) are included in the study.
Twenty-four hours post-MCAO, or longer in some experiments, animals are sacrificed by CO2 asphyxiation (dry ice). The brain is quickly removed from the skull, using standard procedures, rinsed in chilled saline solution, and placed on a rat brain tissue slicer (ASI instrument, MI). Seven 2-mm thick coronal slices are cut from each brain using razor blades. The slices are immersed in 0.9% saline containing 1.0% 2,3,5-triphenyltetrazolume chloride (TTC) (Sigma Chemical Co., St. Louis, Mo.) and incubated in a 37° C. water bath for 30 minutes.
After staining, each 2-mm slice is photographed with a TMC-7 camera (JH Technologies, Ca) which is directly connected to a desktop PC to capture and save the image of each brain slice. This image is used for the measurements of the regions of interest using a computer-based image processing system (Metamorph).
To measure each area, the region of interest is selected using a freehand selection tool, the area is automatically computed by selecting the measure command. […]
For `NC(CCC(=O)NC(CSCC(=O)C(=O)N1CCCCC1)C(=O)NCC(=O)O)C(=O)O` (centres unmarked) [2-Amino-4-[1-(carboxymethyl-carbamoyl)-2-(2,3-dioxo-3-piperidin-1-yl-propylsulfanyl)-ethylcarbamoyl]-butyric acid], the inhibition in vivo at up to 10 mg/kg was 20 to 80%.
In the case of `CCOC(=O)/C(CSCC(NC(=O)CCC(N)C(=O)O)C(=O)NCC(=O)O)=N\OC` (centres unmarked) [2-Amino-4-[1-(carboxymethyl-carbamoyl)-2-(2-ethoxycarbonyl-2-methoxyimino-ethylsulfanyl)-ethylcarbamoyl]-butyric acid], the inhibition in vivo at up to 10 mg/kg is reported as 20 to 80%.
With `NC(CCC(=O)NC(CSCC(=NO)C(=O)N1CCCCC1)C(=O)NCC(=O)O)C(=O)O` (centres unmarked) [2-Amino-4-[1-(carboxymethyl-carbamoyl)-2-(2-hydroxyimino-3-oxo-3-piperidin-1-yl-propylsulfanyl)-ethylcarbamoyl]-butyric acid] the inhibition in vivo at up to 10 mg/kg was 20 to 80%.
`CCCCOC(=O)C(CSCC(NC(=O)CCC(N)C(=O)O)C(=O)NCC(=O)O)=NOCc1ccccc1` (centres unmarked) [2-Amino-4-[2-(2-benzyloxyimino-2-butoxycarbonyl-ethylsulfanyl)-1-(carboxymethyl-carbamoyl)-ethylcarbamoyl]-butyric acid] gave an inhibition in vivo at up to 10 mg/kg of 20 to 80%.
For `CCCCOC(=O)C(CSCC(NC(=O)CCC(N)C(=O)O)C(=O)NCC(=O)O)=NOC` (centres unmarked) [2-Amino-4-[2-(2-butoxycarbonyl-2-methoxyimino-ethylsulfanyl)-1-(carboxymethyl-carbamoyl)-ethylcarbamoyl]-butyric acid], the inhibition in vivo at up to 10 mg/kg was 20 to 80%.
Work on `COC(=O)C(Cc1ccccc1)NC(=O)C(=O)CSCC(NC(=O)CCC(N)C(=O)O)C(=O)NCC(=O)O` (centres unmarked) [2-Amino-4-{1-(carboxymethyl-carbamoyl)-2-[2-(1-methoxycarbonyl-2-phenyl-ethylcarbamoyl)-2-oxo-ethylsulfanyl]-ethylcarbamoyl}-butyric acid] yielded an inhibition in vivo at up to 10 mg/kg of 20 to 80%.
`CCOC(=O)C(N)CCC(=O)NC(CSCC(=O)C(=O)O)C(=O)NCC(=O)O` (centres unmarked) [2-amino-4-[1-(carboxymethyl-carbamoyl)-2-(2-carboxy-2-oxo-ethylsulfanyl)-ethylcarbamoyl]-butyric acid ethyl ester] gave an inhibition in vivo at up to 10 mg/kg of 20 to 80%.
For `NC(CCC(=O)NC(CSCC(=O)C(=O)O)C(=O)NCC(=O)O)C(=O)O` (centres unmarked) [2-amino-4-[1-(carboxymethyl-carbamoyl)-2-(2-carboxy-2-oxo-ethylsulfanyl)-ethylcarbamoyl]-butyric acid], the inhibition in vivo at up to 10 mg/kg was 20 to 80%.
Molecule `CCOC(=O)C(CSCC(NC(=O)CCC(N)C(=O)O)C(=O)NCC(=O)O)=NO` (centres unmarked) [2-amino-4-[1-(carboxymethyl-carbamoyl)-2-(2-ethoxycarbonyl-2-hydroxyimino-ethylsulfanyl)-ethylcarbamoyl]-butyric acid] has an inhibition in vivo at up to 10 mg/kg of 20 to 80%.
`CCCCCCOC(=O)C(=O)CSCC(NC(=O)CCC(N)C(=O)O)C(=O)NCC(=O)O` (centres unmarked) [2-amino-4-[1-(carboxymethyl-carbamoyl)-2-(2-hexyloxycarbonyl-2-oxo-ethylsulfanyl)-ethylcarbamoyl]-butyric acid] was tested, and the inhibition in vivo at up to 10 mg/kg was 20 to 80%.
`CCOC(=O)C(=O)CSc1nc2ccccc2[nH]1` [3-(1H-Benzoimidazol-2-ylsulfanyl)-2-oxo-propionic acid ethyl ester] gave an inhibition in vivo at up to 10 mg/kg of 20 to 80%.
For `CCOC(=O)C(=O)CSC1=NCCS1` [3-(4,5-dihydro-thiazol-2-ylsulfanyl)-2-oxo-propionic acid ethyl ester], the inhibition in vivo at up to 10 mg/kg was 20 to 80%.
For `CCOC(=O)C(=O)CSc1nc2cc(OC)ccc2[nH]1` [3-(5-methoxy-1H-benzoimidazol-2-ylsulfanyl)-2-oxo-propionic acid ethyl ester], the inhibition in vivo at up to 10 mg/kg was 20 to 80%.
`CCOC(=O)C(=O)CSc1nc2cc([N+](=O)[O-])ccc2[nH]1` [3-(5-nitro-1H-benzoimidazol-2-ylsulfanyl)-2-oxo-propionic acid ethyl ester] showed an inhibition in vivo at up to 10 mg/kg of 20 to 80%.
